Measurements published in patent US6525001B1, “Substituted pyrimidine and pyridine herbicides” (Mid-American Commercialization Corporation, priority 1997, dated 2003).

Tests used:
Format in all cases: in vivo
[1] = test system: bedstraw (Galium aparine); test: Test B pre-/postemergence; design: key: 0 is no effect; 10 is complete control; conditions: Postemergence
Summary of the method: (§1)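 Compounds in a surfactant-containing, non-phytotoxic solvent blend are applied to freshly planted seed (preemergence) and, concurrently, to seedlings of 2 to 18 cm at 1–4 leaves (postemergence). Plants stay in the greenhouse twelve to sixteen days and are then scored visually from 0 (no effect) to 10 (complete control).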

[2] = test system: blackgrass (Alopecurus myosuroides); test: Test B pre-/postemergence; design: key: 0 is no effect; 10 is complete control; conditions: for Blackgrass plant response rating: Preemergence
Summary of the method: as §1

[3] = test system: broadleaf signalgrass (Brachiaria decumbens); test: Test B pre-/postemergence; design: key: 0 is no effect; 10 is complete control; conditions: for B. signalgrass plant response rating: Preemergence
Summary of the method: as §1

[4] = test system: cocklebur (Xanthium strumarium); test: Test B pre-/postemergence; design: key: 0 is no effect; 10 is complete control; conditions: for Cocklebur plant response rating: Preemergence
Summary of the method: as §1

corn (Zea mays) = test: Test B pre-/postemergence; design: key: 0 is no effect; 10 is complete control; conditions: for Corn plant response rating: Preemergence
Summary of the method: as §1

[5] = test system: crabgrass (Digitaria sanguinalis); test: Test B pre-/postemergence; design: key: 0 is no effect; 10 is complete control; conditions: for Crabgrass plant response rating: Preemergence
Summary of the method: as §1

[6] = test system: giant foxtail (Setaria faberii); test: Test B pre-/postemergence; design: key: 0 is no effect; 10 is complete control
Summary of the method: as §1

[7] = test system: momingglory (Ipomoea hederacea); test: Test B pre-/postemergence; design: key: 0 is no effect; 10 is complete control
Summary of the method: as §1

[8] = test system: pigweed (Amaranthus retroflexus); test: Test B pre-/postemergence; design: key: 0 is no effect; 10 is complete control
Summary of the method: as §1

[9] = test system: purple nutsedge (Cyperus rotundus); test: Test B pre-/postemergence; design: key: 0 is no effect; 10 is complete control
Summary of the method: as §1

rape (Brassica napus) = test: Test B pre-/postemergence; design: key: 0 is no effect; 10 is complete control
Summary of the method: as §1

soybean (Glycine max) = test: Test B pre-/postemergence; design: key: 0 is no effect; 10 is complete control
Summary of the method: as §1

[10] = test system: sugar beet (Beta vulgaris); test: Test B pre-/postemergence; design: key: 0 is no effect; 10 is complete control
Summary of the method: as §1

[11] = test system: velvetleaf (Abutilon theophrasti); test: Test B pre-/postemergence; design: key: 0 is no effect; 10 is complete control
Summary of the method: as §1

[12] = test system: wheat (Triticum aestivum); test: Test B pre-/postemergence; design: key: 0 is no effect; 10 is complete control
Summary of the method: as §1

wild oat (Avena fatua) = test: Test B pre-/postemergence; design: key: 0 is no effect; 10 is complete control
Summary of the method: as §1

[13] = test system: bamyardgrass (Echinochloa crus-galli); test: Test B flood test
Summary of the method: (§2)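 Read-out is a visual response score from 0 (no effect) to 10 (complete control), assigned by comparison with untreated controls. Treatment was applied at the 2-leaf stage, and plants stayed in the greenhouse for twelve to sixteen days before scoring.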

[14] = test system: duck salad (Heteranthera limosa); test: Test B flood test
Summary of the method: as §2

rice (Oryza sativa) = test: Test B flood test
Summary of the method: as §2

[15] = test system: smallflower flatsedge (Cyperus difformis); test: Test B flood test
Summary of the method: as §2

[16] = Rate 250 g/ha, Postemergence (so in the source)
[17] = Rate 62 g/ha, Postemergence (flood test)
[18] = Rate 125 g/ha, Postemergence, flood test
[19] = Rate 250 g/ha, Postemergence (flood test species)
[20] = Rate 125 g/ha, Postemergence section (flood test species)

Cc1cnc(-c2ccc(F)c(Cl)c2)nc1Cc1cccc(C#N)c1 [Compound 40]
Plant response rating, Bedstraw ([1]; Rate 62 g/ha): 4
Plant response rating, Bedstraw ([1]; Rate 125 g/ha): 4
Plant response rating, Bedstraw ([1]; Rate 250 g/ha): 6
Plant response rating, Blackgrass ([2]; Rate 62 g/ha, Postemergence): 2
Blackgrass plant response rating ([2]; Rate 62 g/ha): 0
Plant response rating, Blackgrass ([2]; Rate 125 g/ha, Postemergence): 2
Blackgrass plant response rating ([2]; Rate 125 g/ha): 1
Plant response rating, Blackgrass ([2]; Rate 250 g/ha, Postemergence): 2
Plant response rating, Blackgrass [2, 16]: 2
Plant response rating, B. signalgrass ([3]; Rate 62 g/ha, Postemergence): 1
B. signalgrass plant response rating ([3]; Rate 62 g/ha): 0
Plant response rating, B. signalgrass ([3]; Rate 125 g/ha, Postemergence): 1
B. signalgrass plant response rating ([3]; Rate 125 g/ha): 0
Plant response rating, B. signalgrass ([3]; Rate 250 g/ha, Postemergence): 1
Plant response rating, B. signalgrass ([3]; Rate 250 g/ha, Postemergence as printed in head r139 (second section for compounds 26-50)): 1
Plant response rating, Cocklebur ([4]; Rate 62 g/ha, Postemergence): 5
Cocklebur plant response rating ([4]; Rate 62 g/ha): 0
Plant response rating, Cocklebur ([4]; Rate 125 g/ha, Postemergence): 2
Cocklebur plant response rating ([4]; Rate 125 g/ha): 0
Plant response rating, Cocklebur ([4]; Rate 250 g/ha, Postemergence): 5
Plant response rating, Cocklebur [4, 16]: 0
Plant response rating, Corn (corn (Zea mays); Rate 62 g/ha, Postemergence): 1
Corn plant response rating (corn (Zea mays); Rate 62 g/ha): 0
Plant response rating, Corn (corn (Zea mays); Rate 125 g/ha, Postemergence): 1
Corn plant response rating (corn (Zea mays); Rate 125 g/ha): 0
Plant response rating, Corn (corn (Zea mays); Rate 250 g/ha, Postemergence): 1
Plant response rating, Corn (corn (Zea mays); [16]): 0
Plant response rating, Crabgrass ([5]; Rate 62 g/ha, Postemergence): 1
Crabgrass plant response rating ([5]; Rate 62 g/ha): 0
Plant response rating, Crabgrass ([5]; Rate 125 g/ha, Postemergence): 1
Crabgrass plant response rating ([5]; Rate 125 g/ha): 0
Plant response rating, Crabgrass ([5]; Rate 250 g/ha, Postemergence): 3
Plant response rating, Crabgrass [5, 16]: 0
Plant response rating, Giant foxtail ([6]; Rate 62 g/ha, Postemergence): 0
Giant foxtail plant response rating ([6]; Rate 62 g/ha, Preemergence): 0
Giant foxtail plant response rating ([6]; Rate 125 g/ha, Postemergence): 0
Giant foxtail plant response rating ([6]; Rate 125 g/ha, Preemergence): 1
Plant response rating, Giant foxtail ([6]; Rate 250 g/ha, Postemergence): 2
Plant response rating, Giant foxtail [6, 16]: 3
Plant response rating, Morningglory ([7]; Rate 62 g/ha, Postemergence): 2
Morningglory plant response rating ([7]; Rate 62 g/ha, Preemergence): 0
Morningglory plant response rating ([7]; Rate 125 g/ha, Postemergence): 2
Morningglory plant response rating ([7]; Rate 125 g/ha, Preemergence): 1
Plant response rating, Morningglory ([7]; Rate 250 g/ha, Postemergence): 5
Plant response rating, Morningglory [7, 16]: 2
Plant response rating, Redroot pigweed ([8]; Rate 62 g/ha, Postemergence): 2
Redroot pigweed plant response rating ([8]; Rate 62 g/ha, Preemergence): 0
Redroot pigweed plant response rating ([8]; Rate 125 g/ha, Postemergence): 3
Redroot pigweed plant response rating ([8]; Rate 125 g/ha, Preemergence): 1
Plant response rating, Redroot pigweed ([8]; Rate 250 g/ha, Postemergence): 6
Plant response rating, Redroot pigweed [8, 16]: 2
Nutsedge plant response rating ([9]; Rate 62 g/ha, Preemergence): 0
Plant response rating, Nutsedge [9, 16]: 0
Plant response rating, Rape (rape (Brassica napus); Rate 62 g/ha, Postemergence): 6
Rape plant response rating (rape (Brassica napus); Rate 62 g/ha, Preemergence): 0
Rape plant response rating (rape (Brassica napus); Rate 125 g/ha, Postemergence): 6
Rape plant response rating (rape (Brassica napus); Rate 125 g/ha, Preemergence): 1
Plant response rating, Rape (rape (Brassica napus); Rate 250 g/ha, Postemergence): 8
Plant response rating, Rape (rape (Brassica napus); [16]): 2
Plant response rating, Soybean (soybean (Glycine max); Rate 62 g/ha, Postemergence): 2
Soybean plant response rating (soybean (Glycine max); Rate 62 g/ha, Preemergence): 0
Soybean plant response rating (soybean (Glycine max); Rate 125 g/ha, Postemergence): 2
Plant response rating, Soybean (soybean (Glycine max); Rate 125 g/ha, Preemergence): 0
Plant response rating, Soybean (soybean (Glycine max); Rate 250 g/ha, Postemergence): 2
Plant response rating, Soybean (soybean (Glycine max); [16]): 0
Plant response rating, Sugarbeets ([10]; Rate 62 g/ha, Postemergence): 10
Sugarbeets plant response rating ([10]; Rate 62 g/ha, Preemergence): 2
Sugarbeets plant response rating ([10]; Rate 125 g/ha, Postemergence): 10
Plant response rating, Sugarbeets ([10]; Rate 125 g/ha, Preemergence): 6
Plant response rating, Sugarbeets ([10]; Rate 250 g/ha, Postemergence): 10
Plant response rating, Sugarbeets [10, 16]: 6
Plant response rating, Velvetleaf ([11]; Rate 62 g/ha, Postemergence): 1
Velvetleaf plant response rating ([11]; Rate 62 g/ha, Preemergence): 0
Velvetleaf plant response rating ([11]; Rate 125 g/ha, Postemergence): 2
Plant response rating, Velvetleaf ([11]; Rate 125 g/ha, Preemergence): 0
Plant response rating, Velvetleaf ([11]; Rate 250 g/ha, Postemergence): 2
Plant response rating, Velvetleaf [11, 16]: 1
Wheat plant response rating ([12]; Rate 62 g/ha, Postemergence): 1
Wheat plant response rating ([12]; Rate 62 g/ha, Preemergence): 0
Wheat plant response rating ([12]; Rate 125 g/ha, Postemergence): 1
Plant response rating, Wheat ([12]; Rate 125 g/ha, Preemergence): 0
Plant response rating, Wheat ([12]; Rate 250 g/ha, Postemergence): 2
Plant response rating, Wheat [12, 16]: 0
Wild oats plant response rating (wild oat (Avena fatua); Rate 62 g/ha, Postemergence): 0
Wild oats plant response rating (wild oat (Avena fatua); Rate 62 g/ha, Preemergence): 0
Wild oats plant response rating (wild oat (Avena fatua); Rate 125 g/ha, Postemergence): 0
Plant response rating, Wild oats (wild oat (Avena fatua); Rate 125 g/ha, Preemergence): 0
Plant response rating, Wild oats (wild oat (Avena fatua); Rate 250 g/ha, Postemergence): 1
Plant response rating, Wild oats (wild oat (Avena fatua); [16]): 1
Plant response rating, Barnyardgrass [13, 17]: 2
Plant response rating, Barnyardgrass [13, 18]: 2
Plant response rating, Barnyardgrass [13, 19]: 2
Plant response rating, Ducksalad [14, 17]: 1
Plant response rating, Ducksalad [14, 18]: 5
Plant response rating, Ducksalad [14, 19]: 7
Plant response rating, Rice (rice (Oryza sativa); [17]): 1
Rice plant response rating (rice (Oryza sativa); [20]): 1
Plant response rating, Rice (rice (Oryza sativa); [19]): 2
Plant response rating, S. Flatsedge [15, 17]: 2
S. Flatsedge plant response rating [15, 20]: 4
Plant response rating, S. Flatsedge [15, 19]: 5
